Measured values from patent US12528805B2, “Solid forms of emetine” (Acer Therapeutics, Inc., priority 2020, dated 2026).
Counter-ions that a name gives are not always drawn.

Columns and labels:
[1] = Solubility screening by solvent addition technique (approximate solubility); type: physicochemical; details: thermodynamic from solid; water; at ambient temperature; small, fine particles remained (Experiment 25)
[2] = Solid form stability on storage (XRPD re-analysis); type: physicochemical
Protocol: The solids were dried under vacuum at ambient temperature (about 23° C.) for 17 h. The solids on the XRPD plate were stored at 40° C./75% RH for 22 h then re-analyzed. Amorphous and a mixture of Compound I dihydrochloride Form 2 and Form 6 were obtained (Table 7).
The solids were isolated by filtration after a total of 27.5 h at 5° C. and washed with 0.6 mL of cold acetone or 3×0.6 mL of cold heptane. The solids were dried under vacuum at ambient temperature (about 23° C.) for 17 h. The solids on the XRPD plate were stored at 40° C./75% RH for 22 h then re-analyzed by XRPD. Results, which are summarized in Table 8, show mixtures of Compound I dihydrochloride Forms 5 and 6, 5, 2 and 1, and 2 were obtained.
1.0 mL of water was added to approximately 300 mg of Compound I dihydrochloride Form 1. The resulting mixture was magnetically stirred at 50° C. over about 15 min, then stirred at 50° C. for 0.25 h. The solution was polish filtered (0.45 μm PTFE filter) into a 2 mL push-cap vial and then stirred at 50° C. for 0.25 h, prior to cooling to 5° C. at 0.1° C./min. After 62 h at 5° C., the experiment was sub-sampled and the solid was analyzed by XRPD. The material on the XRPD plate was dried under vacuum at 35° C. under a stream of wet nitrogen (20-38% RH) for about 9 h and then re-analyzed by XRPD. The material on the XRPD plate was stored at 25° C./60% RH for 22 h and then re-analyzed by XRPD. After a total of 87 h at 5° C., solids were isolated by centrifugation (0.22 μm nylon filter) and analyzed by XRPD. The solids were air-dried at ambient temperature (about 22° C.) for 24 h.
Small-scale crystallization Experiment 7 was sub-sampled prior to ASA and after ASA was complete, with solids isolated by centrifugation (0.22 μm nylon filter) and analyzed by XRPD.
Approximately 10 g of Compound I dihydrochloride Form 1 was dissolved in 67 mL of ethanol:water 99:1 v/v at about 60° C. (initial concentration: 150 mg/mL). Polish filtration was carried out (0.2 μm PTFE filter). The solution was transferred to a 250 mL vessel at 60° C. and stirred at 50° C. (solution temperature) and 300 rpm for about 5 min. The solution was seeded with about 100 mg (1 wt. %) of Compound I dihydrochloride Form 2, isolated from small-scale crystallization Experiments 12 and 13, from example 4 above. The seed dissolved rapidly. Anti-solvent addition of 10 mL of heptane (1 volume) was carried out at 2 vol/h (Heptane content of 13%). The solution was re-seeded with a further 100 mg (1 wt. %) of Form 2, isolated from small-scale crystallization Experiment 12. The seed persisted and a slurry formed. The slurry was stirred at 50° C. for 1 h and then anti-solvent addition of 131 mL of heptane at 1.5 vol/h was carried out, to reach 60% heptane. […] An additional 2 volumes of ethanol:water 99:1 v/v was added at the beginning of the ASA to mobilize the slurry. Once ASA was complete, the slurry was cooled to 5° C. at 0.1° C./min. The experiment was sub-sampled after about 2 h at 5° C. The slurry was thick but mixing. After 3.5 h at 5° C., an additional 3.6 mL of water was added to increase the water content to 2% (ethanol:water:heptane ratio of 39:2:59 v/v/v). The experiment was sub-sampled again after 2 h at 5° C. with additional water. After a total of 10 h at 5° C., solids were isolated by filtration and washed with 2 volumes of cold (5° C.) ethanol:heptane 40:60 v/v. The solids were filtered and dried under vacuum at ambient temperature (about 21° C.) for 14.5 h, then analyzed by XRPD.

[3] = Dynamic vapor sorption (DVS); details: for DVS uptake: 25° C.
[4] = stored at 40° C./75% RH for 22 h

CC[C@H]1CN2CCc3cc(OC)c(OC)cc3[C@@H]2C[C@@H]1C[C@H]1NCCc2cc(OC)c(OC)cc21 [Compound I dihydrochloride Form 1, (2S,3R,11bS)-2-(((R)-6,7-dimethoxy-1,2,3,4-tetrahydroisoquinolin-1-yl)methyl)-3-ethyl-9,10-dimethoxy-1,3,4,6,7,11b-hexahydro-2H-pyrido[2,1-a]isoquinoline dihydrochloride]
solubility [1]: > 200 mg/mL

CC[C@H]1CN2CCc3cc(OC)c(OC)cc3[C@@H]2C[C@@H]1C[C@H]1NCCc2cc(OC)c(OC)cc21 [Compound I dihydrochloride Form 2, (2S,3R,11bS)-2-(((R)-6,7-dimethoxy-1,2,3,4-tetrahydroisoquinolin-1-yl)methyl)-3-ethyl-9,10-dimethoxy-1,3,4,6,7,11b-hexahydro-2H-pyrido[2,1-a]isoquinoline dihydrochloride]
Solid form by XRPD after storage ([2]; stored at 40° C./75% RH for 22 h, dihydrochloride): maintained

CC[C@H]1CN2CCc3cc(OC)c(OC)cc3[C@@H]2C[C@@H]1C[C@H]1NCCc2cc(OC)c(OC)cc21 [Compound I dihydrochloride Form 6, (2S,3R,11bS)-2-(((R)-6,7-dimethoxy-1,2,3,4-tetrahydroisoquinolin-1-yl)methyl)-3-ethyl-9,10-dimethoxy-1,3,4,6,7,11b-hexahydro-2H-pyrido[2,1-a]isoquinoline dihydrochloride]
Solid form by XRPD after storage ([2]; storage at ambient conditions): maintained | Solid form by XRPD after storage ([2]; stored at 25° C./60% RH for 22 h): maintained

CC[C@H]1CN2CCc3cc(OC)c(OC)cc3[C@@H]2C[C@@H]1C[C@H]1NCCc2cc(OC)c(OC)cc21 [Compound I dihydrochloride Form 7B, (2S,3R,11bS)-2-(((R)-6,7-dimethoxy-1,2,3,4-tetrahydroisoquinolin-1-yl)methyl)-3-ethyl-9,10-dimethoxy-1,3,4,6,7,11b-hexahydro-2H-pyrido[2,1-a]isoquinoline dihydrochloride]
DVS uptake ([3]; between 20-70% RH, cycle 2 sorption, material of large-scale Experiment 4 dried under vacuum at about 20° C. for 17.5 h): 8.7% | DVS uptake ([3]; between 40-80% RH, cycle 1 sorption): about 3% | DVS uptake ([3]; between 80-90% RH, cycle 1 sorption): large uptake | Relative humidity of deliquescence ([3]; post-DVS XRPD: amorphous material was recovered): about 90 % RH

CC[C@H]1CN2CCc3cc(OC)c(OC)cc3[C@@H]2C[C@@H]1C[C@H]1NCCc2cc(OC)c(OC)cc21 [Compound I dihydrochloride Form 8, (2S,3R,11bS)-2-(((R)-6,7-dimethoxy-1,2,3,4-tetrahydroisoquinolin-1-yl)methyl)-3-ethyl-9,10-dimethoxy-1,3,4,6,7,11b-hexahydro-2H-pyrido[2,1-a]isoquinoline dihydrochloride]
Solid form by XRPD after storage ([2]; 1 h under ambient conditions): converted to Compound I dihydrochloride Form 2 | Solid form by XRPD after storage ([2]; 3 h under ambient conditions): converted to Form 2

CC[C@H]1CN2CCc3cc(OC)c(OC)cc3[C@@H]2C[C@@H]1C[C@H]1NCCc2cc(OC)c(OC)cc21 [Form 2 with a trace Form 1]
Solid form by XRPD after storage [2, 4]: Compound I dihydrochloride Form 2 was obtained

CC[C@H]1CN2CCc3cc(OC)c(OC)cc3[C@@H]2C[C@@H]1C[C@H]1NCCc2cc(OC)c(OC)cc21 [mixture of Form 5 and Form 6]
Solid form by XRPD after storage ([2]; storage at 5° C. for about 2 weeks): Conversion to Form 5 | Solid form by XRPD after storage [2, 4]: conversion back to Compound I dihydrochloride Form 5
